Experimental data published in US4285964A, “Salts of (+)-catechine, their preparation and use, and compositions containing these salts” (Continental Pharma, priority 1979, dated 1981).
Where a name gives a salt, the structure may show the parent alone. Read-outs that look alike come from different tables or passages of the source. One block for each compound: values may come before it.

Columns and labels:
[1] = volume of water per 1 g of (+)-catechin; cited from earlier work
[2] = solubility of double salts in the presence of 2% of benzyl alcohol; format: physicochemical; conditions: salts formed with L-lysine and an acid
Procedure: These double salts of (+)-catechin are all hydrosoluble but the solubility varies somewhat as a function of the acid used.
Upon cooling, salts precipitate and 1 to 3% of benzyl alcohol are added, advantageously 2%. The solution is reheated to about 45° C. and allowed to cool again, preferably to below 10° C. The double salt then remains in solution.

[3] = pH of solutions of the salts; format: physicochemical

Compound: Oc1cc(O)c2c(c1)O[C@H](c1ccc(O)c(O)c1)[C@@H](O)C2 [(+)-catechin, trans-2-(3,4-dihydroxyphenyl)-3,4-dihydro-2H-1-benzopyran-3,5,7-triol]
solubility of (+)-catechin in water [1]: 1100-1200 ml of water

Compound: Oc1cc(O)c2c(c1)O[C@H](c1ccc(O)c(O)c1)[C@@H](O)C2 [Example 2]
solubility ([2]; listed as salt formed with L-lysine and hydrochloric acid): above 15 mg of (+)-catechin per ml

Compound: Oc1cc(O)c2c(c1)O[C@H](c1ccc(O)c(O)c1)[C@@H](O)C2 [Example 6]
pH of an aqueous concentrated solution [3]: 6.5 | solubility ([2]; water, 2% benzyl alcohol, organic solvent or mixture, read-out: solubility): > 15 mg/mL

Results, then the compound that gave them:

solubility [2]: above 15 mg of (+)-catechin per ml
Compound: Oc1cc(O)c2c(c1)O[C@H](c1ccc(O)c(O)c1)[C@@H](O)C2 [salt formed with L-lysine and acetic acid]

solubility [2]: 9.5 mg of (+)-catechin per ml
Compound: Oc1cc(O)c2c(c1)O[C@H](c1ccc(O)c(O)c1)[C@@H](O)C2 [salt formed with L-lysine and citric acid]

solubility [2]: above 15 mg of (+)-catechin per ml
Compound: Oc1cc(O)c2c(c1)O[C@H](c1ccc(O)c(O)c1)[C@@H](O)C2 [salt formed with L-lysine and glucuronic acid]
